Each structure is given as a SMILES string. Counter-ions that a name gives are not always drawn. Bridge positions count the residues as written; N and C are the ends. Square brackets hold non-standard residues; d marks the D form. Peptide text beside a SMILES is read from it.

Holding throughout (format): in vivo, rat
The test system of experiment [1] is growth hormone (GH). The experiment can be described thus: Inhibition of growth hormone secretion in arginine-treated, pentobarbital-anesthetized rats (radioimmunoassay). The method, then:
(§1) Male albino rats are divided into two groups (e.g. nine rats per group). Each animal is administered sodium pentobarbital (Nembutal), I. P., at a dose of 50 mg/kg. Fifteen minutes later, one group received a S. C. injection of the test compound in saline (typically 5 to 200 μg/kg.), and the other group (control) receives saline alone. Ten minutes later, each animal is given a 0.5 ml. injection of arginine (300 mg/ml., pH 7.2) into the heart. Five minutes after receipt of the arginine, the animals are decapitated and blood is collected into Trasylol-EDTA. An appropriate aliquot of each sample is assayed for GH, glucagon, and insulin by radioimmunossay. GH is determined by the method of Sinha et al., Endocrinol., 91, 784 (1972); glucagon is determined by the method of Caloona and Unger, "Methods of Hormone Radioimmunoassay," Jaffe et al., Ed., Academic Press, New York, 1974, pages 317-330; and insulin is determined by the method of Hales and Randle, Biochem. J., 88, 137 (1963). The blood concentrations of growth hormone, glucagon, and insulin for the animals given the test compound are compared by standard statistical methods to the blood concentrations for the control group.

Experiment [2] relates to insulin. Kind of experiment: Inhibition of insulin secretion in arginine-treated, pentobarbital-anesthetized rats (radioimmunoassay). The method, then:
as §1

In experiment [3] the test system is glucagon. Kind of experiment: Inhibition of glucagon secretion in arginine-treated, pentobarbital-anesthetized rats (radioimmunoassay). How it is done: as §1
The subject of experiment [4] is growth hormone (GH). Kind of experiment: Prolonged inhibition of growth hormone in rats (plasma GH 2 to 6 hours after S.C. injection). The settings on record: for Plasma GH: 1000 μg/kg S.C. How it is done:
Albino male rats are arranged in two groups (nine rats per group). One group received a subcutaneous (S. C.) injection of the test compound (typically 1 mg/kg.) in saline, and the other group received a S. C. injection of saline alone (control). […] P. injection of sodium pentobarbital, 50 mg/kg. At the end of the experiment, blood samples are taken from each animal by cardiac puncture, and each sample is mixed with Trasylol-EDTA. An aliquot of each sample is assayed for GH by radioimmunoassay. The blood growth hormone concentrations for the animals receiving the test compound are compared by standard statistical methods to the growth hormone concentrations for the control animals. Compounds considered long-acting product a significant decrease in blood growth hormone concentration at a dose of 1 mg/kg. at least two hours after injection.

The molecule `C[C@@H](O)[C@@H]1NC(=O)[C@H](CCCCN)NC(=O)[C@@H](Cc2c[nH]c3ccccc23)NC(=O)[C@H](Cc2ccccc2)NC(=O)[C@H](Cc2ccccc2)NC(=O)[C@H](Cc2c[nH]cn2)NC(=O)[C@H](Cc2c[nH]cn2)NC(=O)[C@@H](N)CSSC[C@@H](C(=O)O)NC(=O)[C@@H](CO)NC(=O)[C@H]([C@@H](C)O)NC(=O)[C@H](Cc2ccccc2)NC1=O` [Example 6, L-Cysteinyl-L-Histidyl-L-Histidyl-L-Phenylalanyl-L-Phenylalanyl-D-Tryptophyl-L-Lysyl-L-Threonyl-L-Phenylalanyl-L-Threonyl-D-Seryl-L-Cysteine Cyclic (1→12) Disulfide Triacetate Salt] (H-CHHFF[dW]KTFT[dS]C-OH; disulfide 1-12) returned a GH in experiment [1] (Exp. F, 100 μg/kg S.C., control 363 ± 74, p < 0.01) of 83 ± 16 ng/mL. In experiment [2] (Exp. F, 100 μg/kg S.C., control 75 ± 8, not significant), this molecule returned an Insulin of 60 ± 10 μU/ml. In addition, the Glucagon in experiment [3] (Exp. F, 100 μg/kg S.C., control 162 ± 29, p < 0.01) is 55 ± 12 pg/mL.

In the case of `C[C@@H](O)[C@@H]1NC(=O)[C@H](CCCCN)NC(=O)[C@@H](Cc2c[nH]c3ccccc23)NC(=O)[C@H](Cc2ccccc2)NC(=O)[C@H](Cc2ccccc2)NC(=O)[C@H](Cc2c[nH]cn2)NC(=O)[C@H](CCCNC(=N)N)NC(=O)[C@@H](N)CSSC[C@@H](C(=O)O)NC(=O)[C@@H](Cc2ccc(O)cc2)NC(=O)[C@H]([C@@H](C)O)NC(=O)[C@H](Cc2ccccc2)NC1=O` [Example 2, L-Cysteinyl-L-Arginyl-L-Histidyl-L-Phenylalanyl-L-Phenylalanyl-D-Tryptophyl-L-Lysyl-L-Threonyl-L-Phenylalanyl-L-Threonyl-D-Tyrosyl-L-Cysteine Cyclic (1→12) Disulfide] (H-CRHFF[dW]KTFT[dY]C-OH; disulfide 1-12), the “Plasma GH” value in experiment [4] (Exp. C, 2 hours, control 213 ± 14, p < 0.001) was 89 ± 5 ng/mL; in experiment [4] (Exp. C, 4 hours, control 182 ± 12, p < 0.001), 101 ± 13 ng/mL; in experiment [4] (Exp. D, 5 hours, control 337 ± 36, p < 0.05) it was 230 ± 31 ng/mL; in experiment [4] (Exp. D, 6 hours, control 234 ± 24, not significant), 172 ± 34 ng/mL. In addition, in experiment [4] (rat, in vivo), the “Prolonged inhibition of growth hormone / period of action (in words)” value is given as “shows prolonged inhibition of growth hormone”. In addition, the GH in experiment [1] (Exp. A, 100 μg/kg S.C., blood 15 min after dose, 5 min after arginine, control 508 ± 13, p < 0.05) is 181 ± 47 ng/mL; in experiment [1] (Exp. B, 400 μg/kg S.C., control 234 ± 36, p < 0.01) it was 67 ± 13 ng/mL. For the same molecule, the Insulin amounted to 154 ± 39 μU/ml in experiment [2] (Exp. A, 100 μg/kg S.C., control 298 ± 33, p < 0.05) and 70 ± 23 μU/ml in experiment [2] (Exp. B, 400 μg/kg S.C., control 187 ± 21, p < 0.01). In addition, the Glucagon in experiment [3] (Exp. A, 100 μg/kg S.C., control 61 ± 8, p < 0.01) is 22 ± 7 pg/mL; in experiment [3] (Exp. B, 400 μg/kg S.C., control 41 ± 5, p < 0.01) it was 9 ± 1 pg/mL.

In turn, `C[C@@H](O)[C@@H]1NC(=O)[C@H](CCCCN)NC(=O)[C@@H](Cc2c[nH]c3ccccc23)NC(=O)[C@H](Cc2ccccc2)NC(=O)[C@H](Cc2ccccc2)NC(=O)[C@H](CCC(=O)O)NC(=O)[C@H](CCCNC(=N)N)NC(=O)[C@@H](N)CSSC[C@@H](C(=O)O)NC(=O)[C@@H](Cc2ccc(O)cc2)NC(=O)[C@H]([C@@H](C)O)NC(=O)[C@H](Cc2ccccc2)NC1=O` [Example 4, L-Cysteinyl-L-Arginyl-L-α-Glutamyl-L-Phenylalanyl-L-Phenylalanyl-D-Tryptophyl-L-Lysyl-L-Threonyl-L-Phenylalanyl-L-Threonyl-D-Tyrosyl-L-Cysteine Cyclic (1→12) Disulfide Triacetate Salt] (H-CREFF[dW]KTFT[dY]C-OH; disulfide 1-12) yielded a GH in experiment [1] (Exp. E, 200 μg/kg S.C., control 354 ± 57, p < 0.01) of 81 ± 6 ng/mL. Moreover, the Insulin in experiment [2] (Exp. E, 200 μg/kg S.C., control 336 ± 31, p < 0.01) is on record as 128 ± 33 μU/ml. The molecule also had a Glucagon in experiment [3] (Exp. E, 200 μg/kg S.C., control 62 ± 10, not significant) of 41 ± 14 pg/mL.
